Values joined by “and” are separate entries in the source; they are usually repeats but may differ in a detail not shown here. Identical values can stand only once.
Experiments:
Format in all cases: in vivo
[1] = system: rabbit paracentesis model; assay: Clinical evaluation (slit lamp clinical score), rabbit paracentesis model; design: key to Clinical Score −180 min / Clinical Score −5 min / Clinical Score +115 min: 0: normal; 1: discrete dilatation of iris and conjunctival vessels; 2: moderate dilatation of iris and conjunctival vessels; 3: intense iridal hyperemia with flare in the anterior chamber; 4: intense iridal hyperemia with flare in the anterior chamber and presence of fibrinous exudates; details: for Clinical Score −5 min: 5 min before first paracentesis; for Clinical Score −5 min / Clinical Score +115 min / Clinical Score −180 min: individual eye; for Clinical Score +115 min: 5 min before second paracentesis; for Clinical Score −180 min: basal
[2] = system: protein concentration in the aqueous humor; assay: Protein measurement in aqueous humor, rabbit paracentesis model; details: second paracentesis; for Protein level in aqueous humor, Mean: group mean; for Protein level in aqueous humor: individual eye
Procedure: (§1) Each rabbit was placed in a restraint device and tagged with the alphanumeric code. The formulations were instilled (50 μl) into the conjunctival sac of both eyes 180, 120, 90 and 30 min before the first paracentesis; then 15, 30, 90 min after the first paracentesis. To perform the first paracentesis the animals were anaesthetized by intravenous injection of 5 mg/kg Zoletil® (Virbac; 2.5 mg/kg tiletamine HCl and 2.5 mg/kg zolazepam HCl) and one drop of local anesthetic (Novesina®, Novartis) was administered to the eye. Anterior chamber paracentesis was performed with a 26 G needle attached to a tuberculin syringe; the needle was introduced into the anterior chamber through the cornea, taking care not to damage the tissues. Two hours after the first paracentesis, the animals were sacrificed with 0.4 ml Tanax® (Intervet International B.V.) and the second paracentesis was performed. About 100 μl of aqueous humor were removed at the second paracentesis. Aqueous humor was immediately split in four aliquots and stored at −80° C. until analysis. Then both eyes were enucleated and the iris-ciliary body was carefully excised, placed in polypropylene tubes, and stored at −80° C. until analysis.
For protein concentration determination in the aqueous humor we used the Protein Quantification Kit (Fluka; Cat. No. 77371; Lot. No. 1303129). Five microliters of aqueous humor were diluted to 100 μl with water. Twenty microliters of samples and of standards were load into a 96-well plate and recorded in a plate layout. Samples were treated following the assay procedure described in the kit. A microplate reader (GDV, Italy; model DV 990 B/V6) set at 670 nm was used for making the calibration and analyzing the samples.

[3] = system: PGE2 in the aqueous humor; assay: Prostaglandin E2 (PGE2) measurement in aqueous humor, rabbit paracentesis model; details: second paracentesis; for PGE2 level in aqueous humor, Mean: group mean; for PGE2 level in aqueous humor: individual eye
Procedure: as §1
For the quantitative determination of PGE2 in the aqueous humor we used the PGE2 Immunoassay kit (R&D Systems; Cat. No. KGE004; Lot. No. 240010). Eleven microliters or 16 μl of aqueous humor were diluted to 110 μl or 160 μl with the calibrator diluent solution provided with the kit. One hundred microliters of samples and of standards were load into a 96-well plate and recorded in a plate layout. Samples were treated following the assay procedure described in the kit. A microplate reader (GDV, Italy; model DV 990 B/V6) set at 450 nm (wavelength correction at 540 nm) was used for making the calibration and analyzing the samples.

[4] = system: rabbit paracentesis model; assay: Pupillary diameter measurement, rabbit paracentesis model; details: individual eye; for Pupillary diameter T1: −180 min: 50 μl drops, basal; for Pupillary diameter T2: −5 min: 5 min before first paracentesis; for Pupillary diameter T3: +115 min: 5 min before second paracentesis; for Pupillary diameter Δ(T3 − T1): +115 min minus −180 min
Procedure: as §1
The pupillary diameter of both eyes was measured with a Castroviejo caliper 180 min and 5 min before the first paracentesis and 5 min before the second paracentesis.

[5] = system: leukocytes (PMN) in aqueous humor; assay: Leukocytes (PMN) measurement in aqueous humor, rabbit paracentesis model; details: second paracentesis; for PMN numbers in aqueous humor: individual eye
Procedure: as §1
For the determination of the number of leukocytes we used a haemocytometer (Improved Neubauer Chamber; Bright-line, Hausser Scientific) and a Polyvar 2 microscope (Reichert-Jung).

[6] = system: MPO activity in iris-ciliary body; assay: Myeloperoxidase (MPO) activity in iris-ciliary body, rabbit paracentesis model; details: for MPO Unit/g: iris-ciliary body samples collected after the second paracentesis, individual eye samples; for MPO activity in iris-ciliary body, Mean: after second paracentesis, group mean
Procedure: as §1
The activity of MPO was measured as previously described by Williams et al.[5] The iris-ciliary bodies were carefully dried, weighed and immersed in 1 ml of hexa-decyl-trimethyl-ammonium bromide solution. Then, the samples were sonicated for 10 sec on ice by a ultrasound homogenizer (HD 2070, Bandelin electronic), freeze-thawed three times, sonicated for 10 sec and centrifuged at 14,000 g for 10 min to remove cellular debris. An aliquot of the supernatant ([…] was diluted to 3 ml with the o-dianisidine 2HCl/H2O2 solution. The change in absorbance at 460 nm was continuously monitored for 5 min by a spectrophotometer (UV/Vis Spectrometer Lambda EZ 201; Perkin Elmer). The slope of the line (Δ/min) was determined for each sample and used to calculate the number of units of MPO in the tissue as follows:
were ε=11.3 mM^−1. Values were expressed as units of MPO/g of tissue.

[7] = 0.5% topical formulation, +115 min

SMILES: CCOC(=O)O[C@]1(C(=O)OCCl)CC[C@H]2[C@@H]3CCC4=CC(=O)C=C[C@]4(C)[C@H]3[C@@H](O)C[C@@]21C [LE, loteprednol etabonate, reference compound]
- Clinical Score −5 min ([1]; 0.5% topical formulation): 0
- Clinical Score +115 min ([1]; 0.5% topical formulation): 2 (2×) and 1 (6×)
- Percentage of eyes with clinical score 1 [1, 7]: 75%
- Percentage of eyes with clinical score 2 [1, 7]: 25%
- Clinical score, p versus CTR ([1]; 0.5% topical formulation, Kruskal-Wallis, Dunn): < 0.05
- Clinical Score −180 min ([1]; 0.5% topical formulation): 0
- Percentage of eyes with clinical score 0 ([1]; 0.5% topical formulation, −5 min): 100%
- Percentage of eyes with clinical score 0 ([1]; 0.5% topical formulation, −180 min (basal)): 100%
- Protein level in aqueous humor, Mean ([2]; 0.5% topical formulation): 33.905 mg/mL
- Protein level in aqueous humor ([2]; 0.5% topical formulation): 36.14 mg/mL and 39.10 mg/mL and 34.69 mg/mL and 26.10 mg/mL and 26.30 mg/mL and 28.16 mg/mL and 40.90 mg/mL and 39.85 mg/mL
- PGE2 level in aqueous humor, Mean ([3]; 0.5% topical formulation): 0.672 ng/mL
- PGE2 level in aqueous humor ([3]; 0.5% topical formulation): ^2N/D and 0.23 ng/ml and 0.68 ng/ml and 1.10 ng/ml
- Pupillary diameter T1: −180 min ([4]; 0.5% topical formulation): 6.0 mm (3×) and 6.5 mm (5×)
- Pupillary diameter T2: −5 min ([4]; 0.5% topical formulation): 6.0 mm (3×) and 6.5 mm (5×)
- Pupillary diameter T3: +115 min ([4]; 0.5% topical formulation): 4.5 mm and 5.0 mm (2×) and 5.5 mm (2×) and 6.0 mm (3×)
- Pupillary diameter Δ(T3 − T1) ([4]; 0.5% topical formulation): −1.5 mm (2×) and −1.0 mm (3×) and 0.0 mm and −0.5 mm (2×)
- PMN numbers in aqueous humor, Mean ([5]; 0.5% topical formulation, group mean): 28.333 number/μl
- PMN numbers in aqueous humor ([5]; 0.5% topical formulation): 40 number/μl (2×) and 20 number/μl (3×) and 30 number/μl
- MPO Unit/g ([6]; 0.5% LE): 0.30 Unit/g and 0.51 Unit/g and 0.81 Unit/g and 0.60 Unit/g and 0.73 Unit/g and 1.01 Unit/g
- MPO activity in iris-ciliary body, Mean ([6]; 0.5% topical formulation): 0.661 MPO Unit/g

SMILES: CC(C(=O)O)c1ccc(-c2ccccc2)c(F)c1 (centres unmarked) [F, flurbiprofen, reference compound]
- Clinical Score −5 min ([1]; 0.03% topical formulation): 0
- Clinical Score +115 min ([1]; 0.03% topical formulation): 2
- Percentage of eyes with clinical score 2 ([1]; 0.03% topical formulation, +115 min): 100%
- Clinical Score −180 min ([1]; 0.03% topical formulation): 0
- Percentage of eyes with clinical score 0 ([1]; 0.03% topical formulation, −5 min): 100%
- Percentage of eyes with clinical score 0 ([1]; 0.03% topical formulation, −180 min (basal)): 100%
- Protein level in aqueous humor, Mean ([2]; 0.03% topical formulation): 20.910 mg/mL
- Protein level in aqueous humor ([2]; 0.03% topical formulation): 20.78 mg/mL and 28.80 mg/mL and 23.41 mg/mL and 20.21 mg/mL and 17.53 mg/mL and 15.12 mg/mL and 20.52 mg/mL
- PGE2 level in aqueous humor, Mean ([3]; 0.03% topical formulation): 1.189 ng/mL
- PGE2 level in aqueous humor ([3]; 0.03% topical formulation): 1.04 ng/ml and 0.75 ng/ml and 0.85 ng/ml and 1.11 ng/ml and 2.11 ng/ml (2×) and 0.93 ng/ml and 0.61 ng/ml
- Pupillary diameter T1: −180 min ([4]; 0.03% topical formulation): 5.0 mm (2×) and 7.0 mm and 6.0 mm (4×) and 5.5 mm
- Pupillary diameter T2: −5 min ([4]; 0.03% topical formulation): 6.0 mm (3×) and 6.5 mm (3×) and 7.0 mm and 5.5 mm
- Pupillary diameter T3: +115 min ([4]; 0.03% topical formulation): 4.0 mm and 3.5 mm and 5.5 mm (2×) and 5.0 mm (2×) and 4.5 mm and 6.0 mm
- Pupillary diameter Δ(T3 − T1) ([4]; 0.03% topical formulation): −1.0 mm (3×) and −1.5 mm (3×) and 0.0 mm (2×)
- PMN numbers in aqueous humor ([5]; 0.03% topical formulation): 50 number/μl and 40 number/μl (2×) and 20 number/μl (2×) and 10 number/μl and 30 number/μl
- MPO Unit/g ([6]; 0.03% F): 1.10 Unit/g and 1.70 Unit/g and 0.34 Unit/g and 0.75 Unit/g and 0.74 Unit/g and 0.63 Unit/g and 0.73 Unit/g and 1.27 Unit/g
- MPO, p vs CTR ([6]; 0.03% topical formulation): < 0.01
- MPO activity in iris-ciliary body, Mean ([6]; 0.03% topical formulation): 0.906 MPO Unit/g

Source: patent US20110077270A1, “Compositions and Methods for Treating Ocular Inflammation with Lower Risk of Increased Intraocular Pressure” (priority 2009, published 2011)
